Measurements from patent US20230357320A1, “HELICAL STAPLED PEPTIDES AND USES THEREOF” (FOG PHARMACEUTICALS, INC., priority 2020, published 2023).
Where two headings read alike, the source gives them in different places. Starred links: 1 amine or outer side, 2 acyl side, 3 side chain; linkers in the order of their positions; H or OH if unused. Positions of bridges follow the written chain, without caps; N, C: chain ends. Non-standard residues stand in square brackets, D forms with d. Residues, ends and D or L forms follow the SMILES beside them. *: point of attachment. PL3 = (R)-N-acetyl-2-(2'-propenyl)proline (alpha-allyl proline), stapling residue, C=CC[C@@]1(C(=O)*)CCCN1C(C)=O; X1 = O=C([C@]1(CC=[*:3])CCCN1[*:1])[*:2]; Ala(cPr) = N[C@@H](CC1CC1)C(=O)O; S5 = C=CCCC[C@](C)(N)C(=O)O

B1: PLL5-11 (Ac-PL3-Leu-Leu-S5-Tyr-Leu-Leu-His-NHMe) (peptide)
peptide: Ac-[PL3]LL[S5]YLLH-NHMe
modifications: staple 1-4; also: staple isomer 2, cis olefin
notes: Second-generation ProLock stapled peptide; X marks non-standard residues
B2: PLL7-1 (Ac-PL3-Thr-Leu-S5-Tyr-Leu-Leu-Asp-Asp-NHMe) (peptide)
peptide: Ac-[PL3]TL[S5]YLLDD-NHMe
modifications: staple 1-4; also: staple isomer 2, cis olefin
notes: as for B1
B3: PLL5-5 (Ac-PL3-Thr-Leu-S5-Tyr-Leu-Leu-Asp-NHMe) (peptide)
peptide: Ac-[PL3]TL[S5]YLLD-NHMe
modifications: staple 1-4; also: staple isomer 2, cis olefin
notes: as for B1
B4: PLL5-6 (Ac-PL3-Lys-Leu-S5-Tyr-Leu-Leu-Asp-NHMe) (peptide)
peptide: Ac-[PL3]KL[S5]YLLD-NHMe
modifications: staple 1-4; also: staple isomer 2, cis olefin
notes: as for B1
B5: PLL7-20 (Ac-PL3-Ala-Leu-S5-His-Leu-Leu-Asn-NHMe) (peptide)
peptide: Ac-[PL3]AL[S5]HLLN-NHMe
modifications: staple 1-4; also: staple isomer 2, cis olefin
notes: as for B1
B6: PLL7-8 (Ac-PL3-Ala-Leu-S5-Tyr-Leu-Leu-Gln-Asp-NHMe) (peptide)
peptide: Ac-[PL3]AL[S5]YLLQD-NHMe
modifications: staple 1-4; also: staple isomer 2, cis olefin
notes: as for B1

Assays:
ERβ LBD = target: T1, ERβ LBD (Homo sapiens, UniProt Q92731); assay: Competition fluorescence polarization (FP) binding assay with FITC-ERL4 probe; conditions: read-out: EC50
T1 construct: pET28a+ vector containing ERβ LBD (residues from 261 to 500) along with an N-terminal His6-yBBr-TEV tag; His6 (N); yBBr (N); TEV cleavage site (N); made in house; host or cells: E. coli BL21(DE3) pLysS
Description: In addition to the PAMPA assay, to study the affinity of the first-generation ProLock™ stapled peptides to the Estrogen receptor p ligand-binding domain (ERβ LBD), a fluorescence polarization (FP) binding assay in competition format was used in the presence of the endogenous ERβ LBD ligand estradiol. Competition Fluorescence Polarization (FP) assay was performed on the peptides to determine their half-maximal effective concentration (EC50). To do this, FITC labeled ERL4 peptide (FITC-βAla-His-Pro-Leu-Leu-Nle-Arg-Leu-Leu-Leu-Ser-Pro-CONH2) was synthesized to be used as a fluorescence probe based on existing literature (Fuchs et al., Journal of the American Chemical Society 2013, 135 (11), 4364-4371). Direct FP was performed in black 384-well plates (Corning). The final volume of each assay well was 40 μL with constant concentration of FITC labeled ERL4 peptide (10 nM) and variable concentrations of ERβ LBD protein.
ERβ LBD expression and purification was performed as follows. BL21(DE3) pLysS E. coli cells were transformed with a pET28a+ vector containing ERβ LBD (residues from 261 to 500) along with an N-terminal His6-yBBr-TEV tag. An overnight culture in 10 mL of TB media containing 50 μg/mL kanamycin was prepared from a single bacterial colony. The overnight culture was subsequently added to 1 liter of autoclaved TB media containing 50 μg/mL kanamycin and shaken at 37° C. until an OD of 0.6-0.8 was reached. IPTG was added to the culture and left shaking for 6 hours. Bacterial culture was pelleted and resuspended in lysis buffer. Resuspended bacterial culture was incubated at 0° C. for 10 minutes before sonication at 65% amplitude with 10-sec cycles using a Branson Sonifier. The lysate was then cleared by centrifugation at 8000×g for 20 min. […] The expected molecular weight of the ERβ LBD protein is 30.8 KDa, which molecular weight was confirmed by SDS PAGE analysis. Purified ERβ LBD was concentrated to 90 μM and was stored at −80° C. buffer.
Competition FP assays were also employed. These were performed in black 384-well plates (Corning). The final volume of each assay well was 80 μL containing constant concentrations of estradiol (1 μM) and FITC labeled ERL4 (10 nM). The ERβ LBD concentration was held constant (200 nM) while varying the concentration of ProLock stapled peptides (3-fold dilution from 10 μM). Upon addition of samples to each well, the plate was centrifuged for 10 seconds at 3000 rpm and incubated at 4° C. for 1 hour. FP measurements were performed at room temperature with excitation and emission wavelengths at 485 and 535 nm using a Clariostar microplate reader (BMG Labtech). Each plate had high and low polarization samples, which are used to normalize the assay data. The competition FP results were analyzed by Prism 7 (GraphPad). The non-linear regression analysis of the data was used to determine the half-maximal effective concentration (EC50) of ProLock stapled peptides. […] The normalized FP values shown in FIG. 6 are mean±S.E.M of at least four independent replicates.

[1] = for % Retention: PAMPA
Description: (§1) The synthesized peptides were first analyzed with a PAMPA assay. […] The PAMPA plate system is composed of two compartments, donor and acceptor, which are separated by a phospholipid-infused membrane. The amount of compound transferred from the acceptor well into the donor well over a period of incubation time is used to determine the passive permeability of a compound.
(§2) The two plates are separated by a membrane infused with phospholipids. […] The amount of compound transferred from one well to the other is usually quantified by reverse-phase HPLC-mass spectrometry.
(§3) Briefly, all PAMPA assays were performed using the commercially available PAMPA plate system from Corning, which uses a proprietary membrane composed of structured phospholipids. […] To prevent nonspecific peptide loss to the plates, the acceptor wells of the Corning PAMPA plates were blocked overnight with 5% nonfat milk with 0.1% Triton X-100 in Dulbecco's phosphate buffer saline (DPBS) at pH=7.4, followed by extensive washing prior to assays. The donor wells and membrane itself were not exposed to the milk/Triton solution. […] The PAMPA experiments described herein were performed using plates from Corning Lot #9112010, Lot #9112011 and Lot #7317005 (Corning Inc., Corning, New York, USA).
(§4) To set up PAMPA assays, the PAMPA plate system was equilibrated at room temperature for at least an hour before setting up the assay. The acceptor plate preincubated with milk blocking solution was washed with water, followed by DPBS buffer. 300 μL of 5% DMSO in DPBS at pH=7.4 was added to the pre-blocked acceptor plate, and 200 μL of 10M compounds made with 5% DMSO in DPBS at pH=7.4 was added to the donor plate. The donor plate with a lid was then carefully inserted into the acceptor plate with no bubbles formed at the interface of donor and acceptor plates. The PAMPA assay plate was covered with aluminum foil and placed in a 37° C. incubator for 5 hours. 10 M input solution of all compounds was diluted 20-fold to a final acetonitrile concentration of 50% before analyzing by reverse-phase HPLC and Q-Exactive plus mass spectrometer. At the end of 5 hours, PAMPA donor and acceptor plates were separated and diluted 20-fold and 2-fold respectively to a final acetonitrile concentration of 50%. The diluted solutions of PAMPA donor and acceptor plates were analyzed by reverse-phase HPLC and Q-Exactive plus mass spectrometer.
(§5) Pe measures the passive permeability of each compound tested in the PAMPA assay, whereas % retention measures the amount of compound retained in solution at the end of the assay compared to the input sample.

in vitro = assay: in vitro; set-up: dose or concentration left out as unconfirmed; conditions: PAMPA, pH 7.4, PAMPA Pe
Description: as §1, §2, §3, §4, §5

[2] = CHI Log D measurement (chromatographic hydrophobicity index); conditions: pH 7.4
Description: Finally, to measure hydrophobicity, a CHI Log D measurement assay was employed. […] The retention time measurements were performed using reverse-phase HPLC and Q-Exactive mass spectrometer with Phenomenex Gemini C-18 column (3 uM, 50×3 mm). The reverse-phase chromatography was performed using a gradient of 10 mM ammonium acetate at pH=7.4 and acetonitrile solvents. Using the identical solvent setup, gradient, and flowrate, ProLock stapled peptides were injected onto the column to determine the tR of peptides. Using the calibration curve shown in FIG. 7, tR is converted into CHI. CHI was converted into CHI Log D using the following equation.

[3] = target: T2, Estrogen receptor β ligand-binding domain (ERβ LBD), residues 261 to 500, with N-terminal His6-yBBr-TEV tag (UniProt Q92731 261-500); assay: competition fluorescence polarization against FITC-ERL4 probe, 200 nM ERβ LBD, 1 µM estradiol
T2 construct: range 261-500; Expressed in E. coli BL21(DE3) pLysS from pET28a+, purified by Ni-NTA and SEC; Assays were run in the presence of estradiol; also called ER LBD; not shown: N-terminal His6-yBBr-TEV tag
T2 sequence (Q92731 261-500): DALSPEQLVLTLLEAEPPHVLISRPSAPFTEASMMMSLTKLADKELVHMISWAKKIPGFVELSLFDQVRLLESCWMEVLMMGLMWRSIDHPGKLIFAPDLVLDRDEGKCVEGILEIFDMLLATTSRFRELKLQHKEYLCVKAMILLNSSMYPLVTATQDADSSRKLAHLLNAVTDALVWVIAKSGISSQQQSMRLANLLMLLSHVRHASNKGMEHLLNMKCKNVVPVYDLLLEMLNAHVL

[4] = Table 4, binding to ER LBD, estradiol 1 μM, FITC-ERL4 10 nM, ERβ LBD 200 nM, mean ± S.E.M, at least four replicates
[5] = reverse-phase HPLC, Phenomenex Gemini C-18 column
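For % Retention in this document: Phospholipid-membrane PAMPA, donor and acceptor in DPBS pH 7.4 with 5% DMSO, 37 °C for 5 h, compound in each well quantified by reverse-phase HPLC-MS.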
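For PAMPA Pe (text) in this document: Phospholipid-membrane PAMPA, donor and acceptor in DPBS pH 7.4 with 5% DMSO, 37 °C for 5 h, compound in each well quantified by reverse-phase HPLC-MS.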
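For PAMPA Pe in this document: Phospholipid-membrane PAMPA, donor and acceptor in DPBS pH 7.4 with 5% DMSO, 37 °C for 5 h, compound in each well quantified by reverse-phase HPLC-MS.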
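For Papp in this document: Phospholipid-membrane PAMPA, donor and acceptor in DPBS pH 7.4 with 5% DMSO, 37 °C for 5 h, compound in each well quantified by reverse-phase HPLC-MS.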

Row | Molecule | EC50 (ERβ LBD; [4]) [nM] | % Retention [1] [%] | Papp at 5 h (in vitro) [×10⁻⁶ cm/s] | chromatographic logD [2, 5] | binding result [3] | further results
1 | CNC(=O)[C@H](CC(=O)O)NC(=O)[C@H](Cc1c[nH]cn1)NC(=O)[C@H](CC(C)C)NC(=O)[C@H](CC(C)C)NC(=O)[C@H](CCCNC(=N)N)NC(=O)[C@]1(C)CCCC=CC[C@]2(CCCN2C(C)=O)C(=O)N[C@@H](CC(C)C)C(=O)N[C@@H](CC(C)C)C(=O)N1 [PLL7-9, Ac-PL3-Leu-Leu-S5-Arg-Leu-Leu-His-Asp-NHMe] (Ac-[X1]LL[S5]RLLHD-NHMe; staple 1-4) | 1300 ± 100 | 85 ± 4 | 1.1 ± 0.2 | 2.1 | – | EC50 (ERβ LBD; binding towards the ERβ LBD): 800 to 1300 nM; PAMPA Pe [1]: 1.1 ± 0.2 (×10^−6) cm/sec; PAMPA Pe (text) [1]: exceeding 1 ×10^−6 cm/sec
2 | CNC(=O)[C@@H](NC(=O)[C@H](CC(C)C)NC(=O)[C@H](CC(C)C)NC(=O)[C@H](Cc1ccc(O)cc1)NC(=O)[C@]1(C)CCCC=CC[C@]2(CCCN2C(C)=O)C(=O)N[C@@H](CC(C)C)C(=O)N[C@@H](CC(C)C)C(=O)N1)[C@@H](C)O [PLL5-10, Ac-PL3-Leu-Leu-S5-Tyr-Leu-Leu-Thr-NHMe] (Ac-[X1]LL[S5]YLLT-NHMe; staple 1-4) | 1500 ± 200 | 34 ± 0 | ≤ 0.1 | 3.8 | – | –
3 | CNC(=O)[C@H](CC(=O)O)NC(=O)[C@H](CC(C)C)NC(=O)[C@H](CC(C)C)NC(=O)[C@H](Cc1ccc(O)cc1)NC(=O)[C@H](CCCNC(=N)N)NC(=O)[C@]1(C)CCCC=CC[C@]2(CCCN2C(C)=O)C(=O)N[C@@H](C)C(=O)N[C@@H](CC(C)C)C(=O)N1 [PLL4-4, Ac-PL3-Ala-Leu-S5-Arg-Tyr-Leu-Leu-Asp-NHMe] (Ac-[X1]AL[S5]RYLLD-NHMe; staple 1-4) | – | 71 ± 2 | 0.5 ± 0.1 | 2.3 | – | EC50 (ERβ LBD; Table 2, binding to ER LBD, estradiol 1 μM, FITC-ERL4 10 nM, ERβ LBD 200 nM, mean ± S.E.M, at least four replicates): 7900 ± 400 nM; PAMPA Pe (text) [1]: 0.3-0.7 ×10^−6 cm/sec
4 | CNC(=O)[C@H](CC(=O)O)NC(=O)[C@H](CC(=O)O)NC(=O)[C@H](CC(C)C)NC(=O)[C@H](CC(C)C)NC(=O)[C@H](Cc1ccc(O)cc1)NC(=O)[C@]1(C)CCCC=CC[C@]2(CCCN2C(C)=O)C(=O)N[C@@H]([C@@H](C)O)C(=O)N[C@@H](CC(C)C)C(=O)N1 (single isomer, unassigned) [PLL7-1, Ac-PL3-Thr-Leu-S5-Tyr-Leu-Leu-Asp-Asp-NHMe] | > 10000 | 114 ± 3 | 2.1 ± 0.4 | – | – | PAMPA Pe (text) [1]: 2.1e-06 cm/s; chromatographic logD [2]: 1
5 | CNC(=O)[C@H](CC(=O)O)NC(=O)[C@H](CC(C)C)NC(=O)[C@H](CC(C)C)NC(=O)[C@H](Cc1ccc(O)cc1)NC(=O)[C@]1(C)CCCC=CC[C@]2(CCCN2C(C)=O)C(=O)N[C@@H]([C@@H](C)O)C(=O)N[C@@H](CC(C)C)C(=O)N1 (single isomer, unassigned) [PLL5-5, Ac-PL3-Thr-Leu-S5-Tyr-Leu-Leu-Asp-NHMe] | > 10000 | 101 ± 5 | 1.4 ± 0.2 | – | – | chromatographic logD [2]: 1.4
6 | CNC(=O)[C@H](CC(=O)O)NC(=O)[C@H](CC(C)C)NC(=O)[C@H](CC(C)C)NC(=O)[C@H](CCCNC(=N)N)NC(=O)[C@]1(C)CCCC=CC[C@]2(CCCN2C(C)=O)C(=O)N[C@@H](CC(C)C)C(=O)N[C@@H](CC(C)C)C(=O)N1 [PLL5-8, Ac-PL3-Leu-Leu-S5-Arg-Leu-Leu-Asp-NHMe] (Ac-[X1]LL[S5]RLLD-NHMe; staple 1-4) | 7900 ± 400 | 104 ± 3 | 0.9 ± 0.2 | 2.1 | – | –
7 | CNC(=O)[C@@H](NC(=O)[C@H](CC(C)C)NC(=O)[C@H](CC(C)C)NC(=O)[C@H](CC1CC1)NC(=O)[C@]1(C)CCCC=CC[C@]2(CCCN2C(C)=O)C(=O)N[C@@H]([C@@H](C)O)C(=O)N[C@@H](CC(C)C)C(=O)N1)[C@@H](C)O [PLL7-23, Ac-PL3-Thr-Leu-S5-Cpa-Leu-Leu-Thr-NHMe] (Ac-[X1]TL[S5][Ala(cPr)]LLT-NHMe; staple 1-4) | 2400 ± 100 | 92 ± 2 | < 0.1 | 3.2 | – | –
8 | CC[C@H](C)[C@@H]1NC(=O)[C@]2(CC=CCCC[C@@](C)(C(=O)N[C@@H](CCCNC(=N)N)C(=O)N[C@@H](CC(C)C)C(=O)N[C@@H](CC(C)C)C(=O)N[C@@H](CCC(N)=O)C(=O)N[C@@H](Cc3ccc(O)cc3)C(=O)NC)NC(=O)[C@H](CC(C)C)NC1=O)CCCN2C(C)=O [PLL4-1, Ac-PL3-Ile-Leu-S5-Arg-Leu-Leu-Gln-Tyr-NHMe] (Ac-[X1]IL[S5]RLLQY-NHMe; staple 1-4) | – | 75 ± 2 | ≤ 0.1 | 2.9 | – | EC50 (ERβ LBD; binding towards the ERβ LBD): 200 nM
9 | B1 | – | – | – | – | no binding (tested: peptide titrated 3-fold from 10 µM) | –
10 | B2 | – | – | – | – | no binding (tested: peptide titrated 3-fold from 10 µM) | –
11 | B3 | – | – | – | – | no binding (tested: peptide titrated 3-fold from 10 µM) | –
12 | B4 | – | – | – | – | no binding (tested: peptide titrated 3-fold from 10 µM) | –
13 | B5 | – | – | – | – | no binding (tested: peptide titrated 3-fold from 10 µM) | –
14 | B6 | – | – | – | – | no binding (tested: peptide titrated 3-fold from 10 µM) | –
